# Data as given in US20230227427A1, “IL-17A MODULATORS” (SANOFI, priority 2010, published 2023).
# Where two headings read alike, the source gives them in different places.
# Target: T1, human recombinant IL-17A (Homo sapiens, UniProt Q16552)
# T1 construct: purchased R&D Systems 7955-IL/CF
# T1 sequence (Q16552 24-155): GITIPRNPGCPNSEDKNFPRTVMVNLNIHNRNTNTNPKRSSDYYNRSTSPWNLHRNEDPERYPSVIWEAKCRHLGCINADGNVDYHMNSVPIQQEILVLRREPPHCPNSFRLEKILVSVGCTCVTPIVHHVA
# Test: IL-17A AlphaLISA assay (block binding of IL-17A to its receptor IL-17RA)
# Conditions: read-out: AlphaLISA pIC50 (converted)
# How it was run: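 Compounds pre-incubated 24 h at RT (30 min where flagged) with human IL-17A (7.5 nM stock) before IL-17RA/Fc (5 nM stock), 90 min. Read by AlphaLISA via anti-Fc acceptor and biotin anti-IL-17A/streptavidin donor beads, 680/615 nm. 4-parameter fit; DMSO and 6 μM reference inhibitor as controls; pIC50.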
# [1] = compounds pre-incubated with the IL-17A for 30 min (indicated by * in Table A)
# [2] = compounds pre-incubated with the IL-17A for 24 h at room temperature
IC50 [1] [nM],IC50 [2] [nM],Compound
251,–,"Cc1noc(C)c1-c1ccc(NC(=O)[C@@H](NC(=O)c2ccnn2C)[C@H]2CC[C@H](C)CC2)cn1 [Example 138, N—((S)-2-((6-(3,5-dimethylisoxazol-4-yl)pyridin-3-yl)amino)-1-((1r,4S)-4-methylcyclohexyl)-2-oxoethyl)-1-methyl-1H-pyrazole-5-carboxamide]"
–,39.8,"CCn1nccc1C(=O)N[C@H](C(=O)Nc1ccc(-c2c(C)noc2C)c(F)c1)C(c1ccccc1)c1ccccc1 [Example 61, (S)—N-(1-((4-(3,5-dimethylisoxazol-4-yl)-3-fluorophenyl)amino)-1-oxo-3,3-diphenylpropan-2-yl)-1-ethyl-1H-pyrazole-5-carboxamide]"
–,63.1,"Cn1nccc1C(=O)N[C@H](C(=O)Nc1ccc(-c2ccncc2C(F)(F)F)cc1)C(c1ccccc1)c1ccccc1 [Example 5, (S)-1-methyl-N-(1-oxo-3,3-diphenyl-1-((4-(3-(trifluoromethyl)pyridin-4-yl)phenyl)amino)propan-2-yl)-1H-pyrazole-5-carboxamide]"
–,79.4,"Cn1nccc1C(=O)N[C@H](C(=O)Nc1ccc(-c2ccncc2F)cc1)C(c1ccccc1)c1ccccc1 [Example 36, (S)—N-(1-((4-(3-fluoropyridin-4-yl)phenyl)amino)-1-oxo-3,3-diphenylpropan-2-yl)-1-methyl-1H-pyrazole-5-carboxamide]"
–,200,"Cn1nccc1C(=O)N[C@H](C(=O)Nc1ccc(-c2cnc3ccccn23)cc1)C(c1ccccc1)c1ccccc1 [Example 39, (S)—N-(1-((4-(imidazo[1,2-a]pyridin-3-yl)phenyl)amino)-1-oxo-3,3-diphenylpropan-2-yl)-1-methyl-1H-pyrazole-5-carboxamide]"
158,–,"Cc1n[nH]c(C)c1-c1ccc(NC(=O)[C@@H](NC(=O)c2ccnn2C)[C@H]2CC[C@H](C)CC2)cn1 [Example 211, N—((S)-2-((6-(3,5-dimethyl-1H-pyrazol-4-yl)pyridin-3-yl)amino)-1-((1r,4S)-4-methylcyclohexyl)-2-oxoethyl)-1-methyl-1H-pyrazole-5-carboxamide]"
–,25.1,"Cc1cncc(C)c1-c1ccc(NC(=O)[C@@H](NC(=O)c2ccnn2C)C(c2ccccc2)c2ccccc2)nc1 [Example 73, (S)—N-(1-((3′,5′-dimethyl-[3,4′-bipyridin]-6-yl)amino)-1-oxo-3,3-diphenylpropan-2-yl)-1-methyl-1H-pyrazole-5-carboxamide]"
39.8,–,"CCc1nocc1C(=O)N[C@H](C(=O)Nc1ccc(-c2c(C)cnn2C)cn1)[C@H]1CC[C@H](C)CC1 [Example 127, N—((S)-2-((5-(1,4-Dimethyl-1H-pyrazol-5-yl)pyridin-2-yl)amino)-1-((1r,4S)-4-methylcyclohexyl)-2-oxoethyl)-3-ethylisoxazole-4-carboxamide]"
–,12.6,"Cc1n[nH]c(C)c1-c1ccc(NC(=O)[C@@H](NC(=O)c2ccnn2C)C(c2ccccc2)c2ccccc2)cc1 [Example 32, (S)—N-(1-((4-(3,5-dimethyl-1H-pyrazol-4-yl)phenyl)amino)-1-oxo-3,3-diphenylpropan-2-yl)-1-methyl-1H-pyrazole-5-carboxamide]"
–,31.6,"COc1cnccc1-c1ccc(NC(=O)[C@@H](NC(=O)c2ccnn2C)C(c2ccccc2)c2ccccc2)cc1F [Example 24, (S)—N-(1-((3-fluoro-4-(3-methoxypyridin-4-yl)phenyl)amino)-1-oxo-3,3-diphenylpropan-2-yl)-1-methyl-1H-pyrazole-5-carboxamide]"
100,–,"Cc1nocc1C(=O)N[C@H](C(=O)Nc1ccc(-c2c(C)noc2C)cn1)[C@H]1CC[C@H](C)CC1 [Example 112, N—((S)-2-((5-(3,5-dimethylisoxazol-4-yl)pyridin-2-yl)amino)-1-((1r,4S)-4-methylcyclohexyl)-2-oxoethyl)-3-methylisoxazole-4-carboxamide]"
100,–,"CCc1nocc1C(=O)N[C@H](C(=O)Nc1ccc(-c2c(C)n[nH]c2C)nc1)[C@H]1CC[C@H](C)CC1 [Example 213, N—((S)-2-((6-(3,5-dimethyl-1H-pyrazol-4-yl)pyridin-3-yl)amino)-1-((1r,4S)-4-methylcyclohexyl)-2-oxoethyl)-3-ethylisoxazole-4-carboxamide]"
63.1,–,"Cc1cnn(C)c1-c1ccc(NC(=O)[C@@H](NC(=O)c2conc2C)C2CCCCCC2)nc1 [Example 136, (S)—N-(1-Cycloheptyl-2-((5-(1,4-dimethyl-1H-pyrazol-5-yl)pyridin-2-yl)amino)-2-oxoethyl)-3-methylisoxazole-4-carboxamide]"
100,–,"CCn1nccc1C(=O)N[C@H](C(=O)Nc1ccc(-c2c(C)n[nH]c2C)nc1)[C@H]1CC[C@H](C)CC1 [Example 212, N—((S)-2-((6-(3,5-dimethyl-1H-pyrazol-4-yl)pyridin-3-yl)amino)-1-((1r,4S)-4-methylcyclohexyl)-2-oxoethyl)-1-ethyl-1H-pyrazole-5-carboxamide]"
200,–,"Cc1nnn(C)c1-c1ccc(NC(=O)[C@@H](NC(=O)c2ccnn2C)C2CCCCCC2)nc1 [Example 148, (S)—N-(1-cycloheptyl-2-((5-(1,4-dimethyl-1H-1,2,3-triazol-5-yl)pyridin-2-yl)amino)-2-oxoethyl)-1-methyl-1H-pyrazole-5-carboxamide]"
–,100,"Cc1cc(-c2ccc(NC(=O)[C@@H](NC(=O)c3ccnn3C)C(c3ccccc3)c3ccccc3)cc2F)c(C)cn1 [Example 56, (S)—N-(1-((4-(2,5-dimethylpyridin-4-yl)-3-fluorophenyl)amino)-1-oxo-3,3-diphenylpropan-2-yl)-1-methyl-1H-pyrazole-5-carboxamide]"
631,–,"Cc1noc(C)c1-c1cnc(NC(=O)[C@@H](NC(=O)c2ccnn2C)C2CCCCCC2)cn1 [Example 158, (S)—N-(1-cycloheptyl-2-((5-(3,5-dimethylisoxazol-4-yl)pyrazin-2-yl)amino)-2-oxoethyl)-1-methyl-1H-pyrazole-5-carboxamide]"
31.6,–,"Cn1nccc1C(=O)N[C@H](C(=O)Nc1ccc(-c2c(CO)cnn2C)cn1)C1CCCCCC1 [Example 182, (S)—N-(1-cycloheptyl-2-((5-(4-(hydroxymethyl)-1-methyl-1H-pyrazol-5-yl)pyridin-2-yl)amino)-2-oxoethyl)-1-methyl-1H-pyrazole-5-carboxamide]"
200,–,"COCc1nocc1C(=O)N[C@H](C(=O)Nc1ccc(-c2c(C)cnn2C)cn1)C1CCCCCC1 [Example 137, (S)—N-(1-Cycloheptyl-2-((5-(1,4-dimethyl-1H-pyrazol-5-yl)pyridin-2-yl)amino)-2-oxoethyl)-3-(methoxymethyl)isoxazole-4-carboxamide]"
63.1,–,"Cc1nocc1C(=O)N[C@H](C(=O)Nc1ccc(-c2c(C)noc2C)cn1)C1CCCCCC1 [Example 116, (S)—N-(1-Cycloheptyl-2-((5-(3,5-dimethylisoxazol-4-yl)pyridin-2-yl)amino)-2-oxoethyl)-3-methylisoxazole-4-carboxamide]"
316,–,"Cc1noc(C)c1-c1ccc(NC(=O)[C@@H](NC(=O)c2ccc3n2CCNC3)C2CCCCC2)nc1 [Example 130, (S)—N-(1-Cyclohexyl-2-((5-(3,5-dimethylisoxazol-4-yl)pyridin-2-yl)amino)-2-oxoethyl)-1,2,3,4-tetrahydropyrrolo[1,2-a]pyrazine-6-carboxamide]"
